Results taken from patent publication US10898469B2, “Imidazolylamide derivative” (Sumitomo Dainippon Pharma Co., Ltd., priority 2016, dated 2021).
Like-named read-outs stand apart in the source and are kept apart here.

Tests used:
Format in all cases: cell-based, human
[1] = tested on: HT-29 cells; experiment: Inhibition test for sphere-forming ability of cancer cells (Test Example 1), HT-29; details: for IC50: read-out: IC50 (μmol/L) HT-29 (Sphere IC50 value); for (100%-inhibition rate of cell proliferation) at 1 μmol/L, HT-29: value with %
Excerpt: (§1) The reliable methods established for measuring the self-renewal ability of cells which is one of the CSC's properties include a method for measuring the sphere-forming ability of cancer cells in non-adherent condition in the absence of serum (Cancer Res 65, 5506-5511 (2005)). Human colorectal cancer-derived HCT-116 cells, human colon-adenocarcinoma-derived HT-29 cells, and human pharyngeal cancer-derived FaDu cells were available from American Type Culture Collection (ATCC). HCT-116 cells and HT-29 cells were cultured at 37° C. under 5% CO2 using the McCoy's 5a medium containing 10% fetal bovine serum (FBS) and 1% penicillin/streptomycin, and FaDu cells were cultured at 37° C. under 5% CO2 using the MEM medium containing 10% FBS, 1% non-essential amino acid, 1% sodium pyruvate, and 1% penicillin/streptomycin. HCT-116 cells, HT-29 cells, and FaDu cells were seeded in a 384 Well Black Clear Bottom Ultra-Low Attachment Microplate (Corning Cat. No. 3827) in an amount of 350-800 cells/well using the DMEM/F12 medium containing 2% B27 supplement (GIBCO), 20 ng/mL epidermal growth factor (EGF) (peprotech), 10 ng/mL basic fibroblast growth factor (bFGF) (peprotech), 5 μg/mL insulin (Sigma), and 1% penicillin/streptomycin. Each test compound was added into each well to adjust the final concentration of DMSO to 0.1%, and the cells were cultured for 4 days. The number of viable cells in each well was then measured with CellTiter-Glo® Luminescent Cell Viability Assay (Promega) to calculate the concentration of each test compound for 50% inhibition of cell proliferation (Sphere IC50 value; μmol/L).
(§2) The experiment of Test Example 1 was performed for each compound of each Example. The concentration of each test compound for 50% inhibition of cell proliferation (Sphere IC50 value; μmol/L) is shown in the following Table.

[2] = tested on: HCT-116 cells; experiment: Inhibition test for sphere-forming ability of cancer cells (Test Example 1), HCT-116; details: for IC50: read-out: IC50 (μmol/L) HCT-116 (Sphere IC50 value); for inhibitory effect on the sphere-forming ability of cancer cells: Test Example 1, summary in words, cell line not given (HCT-116, HT-29, FaDu tested)
Excerpt: as §1, §2

[3] = tested on: FaDu cells; experiment: Inhibition test for sphere-forming ability of cancer cells (Test Example 1), FaDu; details: for IC50: read-out: IC50 (μmol/L) FaDu (Sphere IC50 value); for (100%-inhibition rate of cell proliferation) at 1 μmol/L, FaDu: value with %
Excerpt: as §1, §2

[4] = concentration for 50% inhibition of cell proliferation
[5] = HCT-116 cells, concentration for 50% inhibition of cell proliferation
[6] = Homo sapiens, concentration for 50% inhibition of cell proliferation
[7] = Homo sapiens, HCT-116 cells, concentration for 50% inhibition of cell proliferation
[8] = HCT-116 cells, 1 μmol/L, value with %
[9] = Homo sapiens, read-out: (100%-inhibition rate of cell proliferation) at 1 μmol/L, 1 μmol/L, value with %

With `O=C(/C=C/c1ccoc1)Nc1cn(Cc2cccc(Cl)c2)cn1` [Example 88] the IC50 [1, 4] was 0.83 µmol/L, the IC50 [2, 5] was 0.88 µmol/L and the IC50 [3, 4] was 0.91 µmol/L.

`O=C(/C=C/c1ccc([N+](=O)[O-])cc1)Nc1cn(Cc2cccc(Cl)c2)cn1` [Example 68] was tested, and the IC50 [1, 4] was < 0.01 µmol/L, the IC50 [2, 5] was 0.07 µmol/L and the “inhibitory effect on the sphere-forming ability of cancer cells” value (from here on “inhibitory effect”) [2] was “particularly potent inhibitory effect”. The IC50 [3, 4] was 0.01 µmol/L.

In the case of `O=C(Nc1cn(Cc2cccc(C(F)(F)F)c2)cn1)c1ccccc1CO` [Example 250, 2-(Hydroxymethyl)-N-{1-[3-(trifluoromethyl)benzyl]-1H-imidazol-4-yl}benzamide], the IC50 [1, 6] is reported as 8.19 µmol/L and the IC50 [2, 7] is reported as > 10 µmol/L.

With `COc1ccc(/C=C/C(=O)Nc2cn(Cc3cccc(Cl)c3)cn2)c(OC)c1` [Example 71] the IC50 [1, 4] was 0.03 µmol/L, the IC50 [2, 5] was 0.23 µmol/L and the “inhibitory effect” value [2] was “particularly potent inhibitory effect”. The IC50 [3, 4] was 0.06 µmol/L.

`O=C(/C=C/c1ccc(Cl)c(Cl)c1)Nc1cn(Cc2cccc(Cl)c2)cn1` [Example 59] gave an IC50 [1, 4] of 0.79 µmol/L, an IC50 [2, 5] of 7.78 µmol/L and an IC50 [3, 4] of 0.86 µmol/L.

For `COc1ccc(C(=O)Nc2cn(Cc3ccc(C(F)(F)F)cc3)cn2)cc1OC` [Example 287], the “(100%-inhibition rate of cell proliferation) at 1 μmol/L, HT-29” value [1] was 124%, the “(100%-inhibition rate of cell proliferation) at 1 μmol/L, HCT-116” value [2, 8] was 95.8% and the “(100%-inhibition rate of cell proliferation) at 1 μmol/L, FaDu” value [3] was 53.0%.

For `COc1ccc(C(=O)Nc2cn(Cc3cccc(Oc4ccccc4)c3)cn2)cc1OC` [Example 297], the “(100%-inhibition rate of cell proliferation) at 1 μmol/L, HT-29” value [1] was 33.7%, the “(100%-inhibition rate of cell proliferation) at 1 μmol/L, HCT-116” value [2, 8] was 56.6% and the “(100%-inhibition rate of cell proliferation) at 1 μmol/L, FaDu” value [3] was 31.4%.

`CCOc1ccc(/C=C/C(=O)Nc2cn(Cc3cccc(OC(F)(F)F)c3)cn2)cn1` [Example 112] was tested, and the IC50 [1, 6] was 0.04 µmol/L, the IC50 [2, 7] was > 10 µmol/L and the “inhibitory effect” value [2] was “particularly potent inhibitory effect”. The IC50 [3, 6] was 0.07 µmol/L.

For `Cn1cc(/C=C/C(=O)Nc2cn(Cc3cccc(Cl)c3)cn2)ccc1=O` [Example 12], the IC50 [1, 6] was 0.92 µmol/L, the IC50 [2, 7] was 7.54 µmol/L and the IC50 [3, 6] was 1.44 µmol/L.

In the case of `COc1ccc(Cn2cnc(NC(=O)c3ccc(OC)c(OC)c3)c2)cc1` [Example 164], the “(100%-inhibition rate of cell proliferation) at 1 μmol/L, HT-29” value [1] is reported as 89.0%, the “(100%-inhibition rate of cell proliferation) at 1 μmol/L, HCT-116” value [2, 8] is reported as 37.4% and the “(100%-inhibition rate of cell proliferation) at 1 μmol/L, FaDu” value [3] is reported as 92.3%.

For `COc1cc(/C=C/C(=O)Nc2cn(Cc3cccc(Cl)c3)cn2)cc(OC)c1` [Example 85], the “IC50 (μmol/L) HT-29 (Sphere IC50 value)” value [1, 4] was 25.90 µmol/L, the “IC50 (μmol/L) HCT-116 (Sphere IC50 value)” value [2, 5] was 17.96 µmol/L and the “IC50 (μmol/L) FaDu (Sphere IC50 value)” value [3, 4] was 13.73 µmol/L.

In the case of `O=C(/C=C/c1cccc(F)c1)Nc1cn(Cc2cccc(Cl)c2)cn1` [Example 57], the IC50 [1, 4] is reported as 3.3 µmol/L, the IC50 [2, 5] is reported as 0.94 µmol/L and the IC50 [3, 4] is reported as 4.36 µmol/L.

In the case of `O=C(/C=C/c1ccc(O)cc1)Nc1cn(Cc2cccc(Cl)c2)cn1` [Example 84], the IC50 [1, 4] is reported as 0.52 µmol/L, the IC50 [2, 5] is reported as 0.59 µmol/L and the IC50 [3, 4] is reported as 0.68 µmol/L.

`COCCCOc1ccc(C(=O)Nc2cn(Cc3cccc(Cl)c3)cn2)cn1` [Example 204] showed an IC50 [1, 4] of 0.72 µmol/L, an IC50 [2, 5] of 4.56 µmol/L and an IC50 [3, 4] of 0.86 µmol/L.

In the case of `CCOc1ccc(/C=C/C(=O)Nc2cn(Cc3cccc(Cl)c3)cn2)cc1` [Example 74], the IC50 [1, 4] is reported as < 0.01 µmol/L, the IC50 [2, 5] is reported as 0.05 µmol/L and the “inhibitory effect” value [2] is reported as “particularly potent inhibitory effect”. The IC50 [3, 4] was < 0.01 µmol/L.

For `O=C(Nc1cn(Cc2cccc(Cl)c2)cn1)c1cncc(Br)c1` [Example 283], the viability at 1 µM [1, 9] was 44.7%, the viability at 1 µM ([2]; Homo sapiens, read-out: (100%-inhibition rate of cell proliferation) at 1 μmol/L, HCT-116 cells, 1 μmol/L, value with %) was 75.6% and the viability at 1 µM [3, 9] was 50%.

For `COCCOc1cc(/C=C/C(=O)Nc2cn(Cc3cccc(Cl)c3)cn2)ccc1OC` [Example 29, (E)-N-(1-(3-Chlorobenzyl)-1H-imidazol-4-yl)-3-(4-methoxy-3-(2-methoxyethoxy)phenyl)acrylamide], the IC50 [1, 6] was 0.89 µmol/L, the IC50 [2, 7] was 5.87 µmol/L and the IC50 [3, 6] was 0.76 µmol/L.

`Cc1ccc(C(=O)Nc2cn(Cc3cccc(Cl)c3)cn2)cn1` [Example 198] was tested, and the “(100%-inhibition rate of cell proliferation) at 1 μmol/L, HT-29” value [1] was 99.8%, the “(100%-inhibition rate of cell proliferation) at 1 μmol/L, HCT-116” value [2, 8] was 55.3% and the “(100%-inhibition rate of cell proliferation) at 1 μmol/L, FaDu” value [3] was 64.5%.

`O=C(/C=C/c1ccc(F)cc1F)Nc1cn(Cc2cccc(Cl)c2)cn1` [Example 69] was tested, and the IC50 [1, 4] was 0.38 µmol/L, the IC50 [2, 5] was 0.82 µmol/L and the IC50 [3, 4] was 0.54 µmol/L.

For `O=C(/C=C/c1ccc(C(F)(F)F)nc1)Nc1cn(Cc2cccc(Cl)c2)cn1` [Example 44], the IC50 [1, 6] was 0.05 µmol/L, the IC50 [2, 7] was 0.1 µmol/L and the IC50 [3, 6] was 0.07 µmol/L.
